EP1247803A2, “Indolinone compounds suitable for modulation of protein kinases” (Sugen, Inc., priority 1996, dated 1998)

Assays:
MET = MET biochemical kinase assay; set-up: species or system human; concentration or dose not given beside the values
Summary of the method: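 Immunocaptured MET autophosphorylation, read colorimetrically (TMB) via HRP anti-phosphotyrosine antibody. Kinase reaction initiated with buffer containing ATP and divalent metals after compound addition to plate-bound receptor from lysates.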

EGFR = target: T1, EGFR (Homo sapiens, UniProt P00533); experiment: EGFR ELISA assay (in vitro kinase activity, EGFR captured from A431 cell lysate); type: biochemical; set-up: concentration or dose not given beside the values
T1 construct: Add 7 ug A431 cell lysate per well (EGFR source); endogenous in cells; host or cells: A431
Summary of the method: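 EGFR from A431 lysate was captured on plates coated with anti-EGFR antibody. Compounds were added 30 min before a 5 min phosphorylation with 3 µM ATP/5 mM MnCl2, which was stopped with 20 mM EDTA. Phosphotyrosine was detected with rabbit anti-phosphotyrosine, then a peroxidase-conjugated secondary and ABTS/H2O2, read at 410 nm.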

T1 sequence (P00533 25-1210): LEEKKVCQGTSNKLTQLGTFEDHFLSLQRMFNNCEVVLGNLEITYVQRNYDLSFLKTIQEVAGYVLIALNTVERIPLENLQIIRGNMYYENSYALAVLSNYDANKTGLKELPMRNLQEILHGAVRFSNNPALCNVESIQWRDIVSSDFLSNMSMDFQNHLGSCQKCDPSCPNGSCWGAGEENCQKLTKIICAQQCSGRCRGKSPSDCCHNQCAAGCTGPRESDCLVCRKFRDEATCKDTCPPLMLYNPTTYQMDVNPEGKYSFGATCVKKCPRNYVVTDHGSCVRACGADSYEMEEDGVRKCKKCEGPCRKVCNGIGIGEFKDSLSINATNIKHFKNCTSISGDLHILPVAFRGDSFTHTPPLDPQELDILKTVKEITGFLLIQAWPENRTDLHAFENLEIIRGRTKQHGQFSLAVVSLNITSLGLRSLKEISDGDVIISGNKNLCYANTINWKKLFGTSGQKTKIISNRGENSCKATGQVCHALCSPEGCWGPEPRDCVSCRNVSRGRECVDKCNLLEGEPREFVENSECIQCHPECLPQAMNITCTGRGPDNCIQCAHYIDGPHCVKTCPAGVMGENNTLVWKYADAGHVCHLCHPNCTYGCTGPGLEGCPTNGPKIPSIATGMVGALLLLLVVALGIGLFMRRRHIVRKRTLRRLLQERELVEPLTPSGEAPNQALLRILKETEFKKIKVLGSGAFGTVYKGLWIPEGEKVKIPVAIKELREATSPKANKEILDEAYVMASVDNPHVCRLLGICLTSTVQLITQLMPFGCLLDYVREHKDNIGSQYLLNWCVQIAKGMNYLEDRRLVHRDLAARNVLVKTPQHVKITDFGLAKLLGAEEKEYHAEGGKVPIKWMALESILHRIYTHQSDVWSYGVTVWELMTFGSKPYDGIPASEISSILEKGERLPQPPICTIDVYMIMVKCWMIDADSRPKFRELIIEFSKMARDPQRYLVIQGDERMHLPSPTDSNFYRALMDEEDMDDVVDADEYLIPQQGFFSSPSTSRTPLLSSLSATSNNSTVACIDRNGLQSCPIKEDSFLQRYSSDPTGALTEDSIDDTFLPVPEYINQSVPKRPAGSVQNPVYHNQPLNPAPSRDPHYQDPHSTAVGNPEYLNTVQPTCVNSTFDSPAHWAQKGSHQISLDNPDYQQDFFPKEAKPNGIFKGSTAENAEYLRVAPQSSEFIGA

Structure (SMILES)	Met Kinase % Inhibition (MET) [%]	Biochem EGFR %Inhibition (EGFR) [%]
CCOC(=O)c1[nH]c(C=C2C(=O)Nc3ccc(I)cc32)c(C(=O)OC)c1C [10726/B03]	81.1	3.5
O=C1Nc2ccc(S(=O)(=O)Nc3ccc(C(F)(F)F)cc3)cc2C1=Cc1c(Br)cnn1-c1ccc(Cl)cc1 [10725/E10]	-4.7	6.1
O=C1Nc2ccc(F)cc2C1=C1C(=O)Nc2ccc(I)cc21 [10726/B08]	60.2	23.6
O=C1Nc2ccc(S(=O)(=O)N3CCOCC3)cc2C1=Cc1ccc(Br)cc1 [10717/F08]	64.0	-23.4
O=C1Nc2ccc(CCCl)cc2C1=Cc1cccs1 [10717/G03]	4.5	18.8
COc1ccc(C=C2C(=O)Nc3c(Br)cc(Br)cc32)cc1 [10726/A11]	70.8	6.2
CNS(=O)(=O)c1ccc2c(c1)C(=Cc1ccc(N3CCN(C=O)CC3)cc1)C(=O)N2 [10725/D07]	37.0	-25.8
CNS(=O)(=O)c1ccc2c(c1)C(=Cc1ccc(C)o1)C(=O)N2 [10725/D04]	55.1	4.3
Cc1c(Br)ccc2c1C(=Cc1cc(O)c3c(c1O)CCCC3)C(=O)N2 [10726/C07]	84.9	40.8
COc1cc(C)cc(O)c1C=C1C(=O)Nc2ccc(Br)c(C)c21 [10725/C06]	54.7	-11.5
O=CN1CCN(c2ccc(C=C3C(=O)Nc4ccc(S(=O)(=O)Nc5ccc(C(F)(F)F)cc5)cc43)cc2)CC1 [10725/E07]	45.3	12.5
O=C1Nc2ccc(I)cc2C1=Cc1ccc(Br)o1 [10726/B05]	96.8	49.0
O=C1Nc2ccc(S(=O)(=O)N3CCOCC3)cc2C1=Cc1c[nH]cn1 [10725/F11]	25.7	20.8
O=CN1CCN(c2ccc(C=C3C(=O)Nc4ccc(CCCl)cc43)cc2)CC1 [10725/G07]	39.7	-25.8
O=C1Nc2c(Br)cc(Br)cc2C1=Cc1cc(O)c2c(c1O)CCCC2 [10726/A07]	101.4	88.7
Cc1cn(C)cc1C=C1C(=O)Nc2c(Br)cc(Br)cc21 [10726/A06]	54.7	0.2
COC(=O)Cc1c(Cl)[nH]c(C=C2C(=O)Nc3ccc(S(=O)(=O)N4CCOCC4)cc32)c1C(=O)OC [10725/F09]	48.5	32.2
Cc1c(Br)ccc2c1C(=Cc1c[nH]cn1)C(=O)N2 [10725/C11]	48.4	-22.1
Cc1cc(C=C2C(=O)Nc3ccc(I)cc32)cc(C(C)(C)C)c1O [10726/B04]	78.9	71.1
Cc1cn(C)cc1C=C1C(=O)Nc2ccc(Br)c(C)c21 [10726/C06]	42.6	-0.9

Structure (SMILES)	Met Kinase % Inhibition (MET) [%]	Biochem EGFR %Inhibition (EGFR) [%]
O=C1Nc2ccccc2C1=C1C(=O)Nc2c(Br)cc(Br)cc21 [10726/A09]	70.8	-6.3
Cc1ccc(C=C2C(=O)Nc3ccc(S(=O)(=O)Nc4ccc(C(F)(F)F)cc4)cc32)o1 [10725/E04]	59.0	31.2
O=C1Nc2ccc(S(=O)(=O)N3CCOCC3)cc2C1=Cc1sccc1Br [10725/F02]	27.8	-3.7
Cc1c(Br)ccc2c1C(=Cc1ccc(Br)o1)C(=O)N2 [10726/C05]	58.0	16.7
O=C1Nc2ccc(S(=O)(=O)Nc3ccc(C(F)(F)F)cc3)cc2C1=Cc1c[nH]cn1 [10725/E11]	9.6	-36.0
O=C1Nc2ccc(S(=O)(=O)Nc3ccc(C(F)(F)F)cc3)cc2C1=Cc1sccc1Br [10725/E02]	40.2	4.3
Cc1ccc(C=C2C(=O)Nc3ccc(S(=O)(=O)N4CCOCC4)cc32)s1 [10717/F07]	37.6	-14.3
CNS(=O)(=O)c1ccc2c(c1)C(=Cc1c[nH]cn1)C(=O)N2 [10725/D11]	100.5	-12.5
CNS(=O)(=O)c1ccc2c(c1)C(=Cc1[nH]c(Cl)c(CC(=O)OC)c1C(=O)OC)C(=O)N2 [10725/D09]	28.0	4.3
COc1ccc(Br)c(C=C2C(=O)Nc3ccc(S(=O)(=O)Nc4ccc(C(F)(F)F)cc4)cc32)c1O [10725/E03]	60.9	-10.3
O=C1Nc2ccc(CCCl)cc2C1=Cc1ccc(N2CCOCC2)cc1 [10725/G08]	47.3	-13.7
O=C1Nc2ccc(S(=O)(=O)Nc3ccc(C(F)(F)F)cc3)cc2C1=Cc1ccc(N2CCOCC2)cc1 [10725/E08]	39.7	14.2
CCOC(=O)c1[nH]c(C=C2C(=O)Nc3c(Br)cc(Br)cc32)c(C(=O)OC)c1C [10726/A03]	70.1	-12.5
CCOC(=O)c1[nH]c(C=C2C(=O)Nc3ccc(Br)c(C)c32)c(C(=O)OC)c1C [10726/C03]	38.9	29.8
Cc1[nH]c(C=C2C(=O)Nc3ccc(S(=O)(=O)N4CCOCC4)cc32)c(Br)c1Br [10717/F11]	81.5	91.2
O=C1Nc2c(Br)cc(Br)cc2C1=Cc1ccc(Br)o1 [10726/A05]	75.2	-28.4
Cc1cn(C)cc1C=C1C(=O)Nc2ccc(I)cc21 [10726/B06]	76.1	6.6
CNS(=O)(=O)c1ccc2c(c1)C(=Cc1sccc1Br)C(=O)N2 [10725/D02]	14.0	-23.9
CNS(=O)(=O)c1ccc2c(c1)C(=Cc1c(O)cc(C)cc1OC)C(=O)N2 [10725/D06]	24.7	-26.4
O=C1Nc2ccc(I)cc2C1=Cc1cc(O)c2c(c1O)CCCC2 [10726/B07]	98.5	72.4

Structure (SMILES)	Met Kinase % Inhibition (MET) [%]	Biochem EGFR %Inhibition (EGFR) [%]
Cc1c(Br)ccc2c1C(=Cc1sccc1Br)C(=O)N2 [10725/C02]	6.3	-43.4
Cc1c(Br)ccc2c1C(=Cc1ccc(N3CCN(C=O)CC3)cc1)C(=O)N2 [10725/C07]	38.8	-16.5
Cc1c(Br)ccc2c1C(=Cc1ccc(N3CCOCC3)cc1)C(=O)N2 [10725/C08]	28.0	-11.9
Cc1c(Br)ccc2c1C(=Cc1c(Br)cnn1-c1ccc(Cl)cc1)C(=O)N2 [10725/C10]	-0.6	5.3
Cc1cc(C=C2C(=O)Nc3ccc(Br)c(C)c32)cc(C(C)(C)C)c1O [10726/C04]	91.7	58.4
Cc1ccc(C=C2C(=O)Nc3ccc(CCCl)cc32)o1 [10725/G04]	47.1	-12.3
O=C1Nc2ccc(CCCl)cc2C1=Cc1c[nH]cn1 [10725/G11]	25.7	-32.4
Cc1cc(C=C2C(=O)Nc3ccc(S(=O)(=O)Nc4ccc(C(F)(F)F)cc4)cc32)[nH]n1 [10725/E05]	28.2	-5.5
COC(=O)Cc1c(Cl)[nH]c(C=C2C(=O)Nc3ccc(Br)c(C)c32)c1C(=O)OC [10725/C09]	24.1	23.6
O=C1Nc2ccc(CCCl)cc2C1=Cc1c(Br)cnn1-c1ccc(Cl)cc1 [10725/G10]	27.7	17.8
COc1ccc(Br)c(C=C2C(=O)Nc3ccc(Br)c(C)c32)c1O [10725/C03]	72.9	-12.7
CCc1ccc(C=C2C(=O)Nc3c(Br)cc(Br)cc32)s1 [10726/A10]	58.9	26.5
O=C1Nc2ccc(S(=O)(=O)N3CCOCC3)cc2C1=Cc1ccc(N2CCOCC2)cc1 [10725/F08]	72.2	15.4
CNS(=O)(=O)c1ccc2c(c1)C(=Cc1ccc(N3CCOCC3)cc1)C(=O)N2 [10725/D08]	39.2	20.0
Cc1cc(C=C2C(=O)Nc3ccc(S(=O)(=O)N4CCOCC4)cc32)[nH]n1 [10725/F05]	15.5	-18.9
Cc1ccc(C=C2C(=O)Nc3ccc(Br)c(C)c32)o1 [10725/C04]	75.9	31.8
Cc1ccc(C=C2C(=O)Nc3ccc(S(=O)(=O)N4CCOCC4)cc32)o1 [10725/F04]	38.1	-49.6
COc1cc(C)cc(O)c1C=C1C(=O)Nc2ccc(S(=O)(=O)Nc3ccc(C(F)(F)F)cc3)cc21 [10725/E06]	36.7	-17.7
O=C1Nc2ccc(S(=O)(=O)N3CCOCC3)cc2C1=Cc1c(Br)cnn1-c1ccc(Cl)cc1 [10725/F10]	14.2	3.7
